One assay concerns KMS-12-BM cell lines. Kind of assay: KMS12 #2 flow cytometry assay (phospho-BAD Ser112). It counts as cell-based. The settings on record: Homo sapiens, 110 min, read-out: KMS-12-Flow IC50 IP. On the technique in general: In flow cytometry, cells or beads pass a laser one at a time.
The next assay addresses Pim-1 (Homo sapiens (Human), UniProt P11309). The experiment in a line: Pim-Mn enzyme assay (HTRF, 384-well), Pim-1. It counts as biochemical. The settings on record: read-out: Pim-1-Mn IC50 IP. (In general: TR-FRET usually uses a lanthanide donor and a delayed reading to cut background.)
A further assay addresses Pim-2 (Homo sapiens (Human), UniProt Q9P1W9). The experiment in a line: Pim-Mn enzyme assay (HTRF, 384-well), Pim-2. It is filed as biochemical. Particulars: read-out: Pim-2-Mn IC50 IP.
[1] abbreviates: KMS-12-BM cells, pBAD Ser112 by flow cytometry, 110 min with compound.
[2] abbreviates: Pim-1 enzyme 5 pM, ATP 1.5 μM, BAD (S112) 0.5 μM, HTRF, 22-point curve.
The mark [3] stands for this setting: Pim-2 enzyme 0.5 pM, ATP 1.5 μM, BAD (S112) 0.5 μM, HTRF, 22-point curve.

These results are taken from patent US9394297B2, “Amides as pim inhibitors” (AMGEN INC., priority 2012, dated 2016).

Where two headings read alike, the source gives them in different places.

Sequence of Pim-2 (Q9P1W9 whole entry): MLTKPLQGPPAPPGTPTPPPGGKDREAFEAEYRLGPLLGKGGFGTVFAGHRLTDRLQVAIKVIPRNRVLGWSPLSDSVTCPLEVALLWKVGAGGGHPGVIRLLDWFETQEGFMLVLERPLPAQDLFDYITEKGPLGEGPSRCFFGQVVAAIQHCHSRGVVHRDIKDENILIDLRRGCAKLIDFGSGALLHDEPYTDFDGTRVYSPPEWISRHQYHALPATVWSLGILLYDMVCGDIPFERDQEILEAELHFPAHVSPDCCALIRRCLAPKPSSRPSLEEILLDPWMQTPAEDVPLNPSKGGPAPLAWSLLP
Sequence of Pim-1 (P11309 whole entry): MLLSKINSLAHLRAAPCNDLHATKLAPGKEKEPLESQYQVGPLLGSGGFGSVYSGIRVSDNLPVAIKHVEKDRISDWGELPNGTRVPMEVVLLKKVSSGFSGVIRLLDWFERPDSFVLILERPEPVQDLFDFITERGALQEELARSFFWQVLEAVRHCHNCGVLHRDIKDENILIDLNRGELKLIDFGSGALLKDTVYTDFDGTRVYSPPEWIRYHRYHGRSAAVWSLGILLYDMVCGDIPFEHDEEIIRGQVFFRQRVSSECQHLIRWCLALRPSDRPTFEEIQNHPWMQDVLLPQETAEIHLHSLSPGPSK

In general, IC50 refers to the concentration needed to halve the response being measured. For the molecule `Cc1nc2cccc(-c3cc4c([nH]3)CCNC4=O)c2nc1NC(C)c1ccccn1` (stereo not drawn) [Example 321, 2-(2-methyl-3-((1-(pyridin-2-yl)ethyl)amino)quinoxalin-5-yl)-6,7-dihydro-1H-pyrrolo[3,2-c]pyridin-4(5H)-one], the IC50 in the assay with KMS-12-BM cell lines (setting [1]) is > 40000 nM; on Pim-1 (setting [2]), 98.6 nM; at Pim-2 (setting [3]) it was 156 nM.
For `Cc1nc2cccc(-c3cc4c([nH]3)CCNC4=O)c2nc1NC(C)c1cnccn1` (stereo not drawn) [Example 322, 2-(2-methyl-3-((1-(pyrazin-2-yl)ethyl)amino)quinoxalin-5-yl)-6,7-dihydro-1H-pyrrolo[3,2-c]pyridin-4(5H)-one] the same measures were > 40000 nM, 94.6 nM and 163 nM.
`Cc1nc2cccc(-c3cc4c([nH]3)CCNC4=O)c2nc1NC(C)c1ccncn1` (stereo not drawn) [Example 323, 2-(2-methyl-3-((1-(pyrimidin-4-yl)ethyl)amino)quinoxalin-5-yl)-6,7-dihydro-1H-pyrrolo[3,2-c]pyridin-4(5H)-one]: the values for the half-maximal inhibitory concentration (IC50) in the assay on KMS-12-BM cell lines (setting [1]), on Pim-1 (setting [2]) and on Pim-2 (setting [3]) were > 20000 nM, 83.8 nM and 62.7 nM, respectively.
Take `Cc1nc2cccc(-c3cc4c([nH]3)C3(CC3)NC4=O)c2nc1NC(C)(C)C` [Example 324, 2′-(3-(tert-butylamino)-2-methyl-5-quinoxalinyl)-1′H-spiro[cyclopropane-1,6′-pyrrolo[3,4-b]pyrrol]-4′(5′H)-one]: the results for the IC50 in the assay with KMS-12-BM cell lines (setting [1]), at Pim-1 (setting [2]) and at Pim-2 were 91.7 nM, 0.139 nM and 0.223 nM, respectively.
For the molecule `Cc1nc2cccc(-c3cc4c([nH]3)C3(CC3)NC4=O)c2nc1NC1CC1` [Example 325, 2′-(3-(cyclopropylamino)-2-methyl-5-quinoxalinyl)-1′H-spiro[cyclopropane-1,6′-pyrrolo[3,4-b]pyrrol]-4′(5′H)-one], the values for the IC50 in the assay on KMS-12-BM cell lines (KMS-12-BM), on Pim-1 and at Pim-2 (setting [3]) were 68.8 nM, 0.293 nM and 0.242 nM, respectively.
Take `Cc1nc2cccc(-c3cc4c([nH]3)[C@H](C)NC4=O)c2nc1NC1(C)CC1` [Example 328, (6S)-6-methyl-2-(2-methyl-3-((1-methylcyclopropyl)amino)-5-quinoxalinyl)-5,6-dihydropyrrolo[3,4-b]pyrrol-4(1H)-one]: the IC50 is 46 nM with KMS-12-BM cell lines (setting [1]), 0.195 nM at Pim-1 (setting [2]) and 0.201 nM on Pim-2 (setting [3]).
As to `Cc1nc2cccc(-c3cc4c([nH]3)C3(CC3)NC4=O)c2nc1NC1(C)CC1` [Example 329, 2′-(2-methyl-3-((1-methylcyclopropyl)amino)-5-quinoxalinyl)-1′H-spiro[cyclopropane-1,6′-pyrrolo[3,4-b]pyrrol]-4′(5′H)-one], the IC50 in the assay with KMS-12-BM cell lines (setting [1]) came out at 26.2 nM; at Pim-1 it was 0.334 nM; on Pim-2, 0.39 nM.
With `Cc1nc2ccc(F)c(-c3cc4c([nH]3)C3(CC3)NC4=O)c2nc1NC(C)C` [Example 330, 2′-(6-Fluoro-3-(isopropylamino)-2-methylquinoxalin-5-yl)-1′H-spiro[cyclopropane-1,6′-pyrrolo[3,4-b]pyrrol]-4′(5′H)-one], the IC50 turned out to be 85.6 nM with KMS-12-BM cell lines (setting [1]), 0.724 nM at Pim-1 (setting [2]) and 1.17 nM on Pim-2 (setting [3]).
As for `Cc1nc2cccc(-c3cc4c([nH]3)C3(CC3)NC4=O)c2nc1NCC(F)F` [Example 331, 2′-(3-((2,2-difluoroethyl)amino)-2-methylquinoxalin-5-yl)-1′H-spiro[cyclopropane-1,6′-pyrrolo[3,4-b]pyrrol]-4′(5′H)-one], the IC50 in the assay with KMS-12-BM cell lines (setting [1]) stood at 130 nM; on Pim-1 (setting [2]), 1.67 nM; at Pim-2 (setting [3]), 1.12 nM.
On to `Cc1nc2cccc(-c3cc4c([nH]3)[C@@H](C)NC4=O)c2nc1NC1(C)CC1` [Example 333, (6R)-6-methyl-2-(2-methyl-3-((1-methylcyclopropyl)amino)-5-quinoxalinyl)-5,6-dihydropyrrolo[3,4-b]pyrrol-4(1H)-one], for which the 50% inhibitory concentration (IC50) amounted to 8.42 nM with KMS-12-BM cell lines (setting [1]), 0.185 nM on Pim-1 (setting [2]) and 0.183 nM on Pim-2 (setting [3]).
In the same order, the values of `Cc1nc2cccc(-c3cc4c([nH]3)CNC4=O)c2nc1NC(C)(C)C` [Example 334, 2-(3-(tert-Butylamino)-2-methyl-5-quinoxalinyl)-5,6-dihydropyrrolo[3,4-b]pyrrol-4(1H)-one] are 43.8 nM, 1.18 nM and 0.882 nM.
As for `Cc1nc2cccc(-c3cc4c([nH]3)CCNC4=O)c2nc1NCC1(C)CC1` [Example 335, 2-(2-Methyl-3-(((1-methylcyclopropyl)methyl)amino)-5-quinoxalinyl)-1,5,6,7-tetrahydro-4H-pyrrolo[3,2-c]pyridin-4-one], the IC50 in the assay on KMS-12-BM cell lines (setting [1]) is 99.3 nM; on Pim-1 (setting [2]), 1.22 nM; at Pim-2 (setting [3]) it was 0.996 nM.
In the same order, the values of `Cc1nc2cccc(-c3cc4c([nH]3)CCNC4=O)c2nc1NCC(F)(F)F` [Example 336, 2-(2-methyl-3-((2,2,2-trifluoroethyl)amino)-5-quinoxalinyl)-1,5,6,7-tetrahydro-4H-pyrrolo[3,2-c]pyridin-4-one] are 145 nM, 2.82 nM and 1.32 nM.
In the same order, the values of `CCOc1cnc2cccc(-c3cc4c([nH]3)CCNC4=O)c2n1` [Example 337, 2-(3-ethoxy-5-quinoxalinyl)-1,5,6,7-tetrahydro-4H-pyrrolo[3,2-c]pyridin-4-one] are 6920 nM, 71.9 nM and 54.6 nM.
For `Cc1nc2cccc(-c3cc4c([nH]3)CCNC4=O)c2nc1NC(C)(C)CN` [Example 341, 2-(3-((2-amino-1,1-dimethylethyl)amino)-2-methyl-5-quinoxalinyl)-1,5,6,7-tetrahydro-4H-pyrrolo[3,2-c]pyridin-4-one], the figures for the IC50 in the assay with KMS-12-BM cell lines (setting [1]), on Pim-1 (setting [2]) and on Pim-2 were 7830 nM, 6.85 nM and 10.7 nM, respectively.
Turning to `Cc1nc2cccc(-c3cc4c([nH]3)CCNC4=O)c2nc1NC(C)(C)CNCCS(C)(=O)=O` [Example 342, 2-(3-((1,1-dimethyl-2-((2-(methylsulfonyl)ethyl)amino)ethyl)amino)-2-methyl-5-quinoxalinyl)-1,5,6,7-tetrahydro-4H-pyrrolo[3,2-c]pyridin-4-one], the IC50 amounted to 11500 nM in the assay on KMS-12-BM cell lines (setting [1]), 28.1 nM at Pim-1 (setting [2]) and 20.4 nM on Pim-2 (setting [3]).
For `CC(C)(C)Nc1nc2c(-c3cc4c([nH]3)CCNC4=O)cccc2nc1F` [Example 343, 2-(3-(tert-butylamino)-2-fluoro-5-quinoxalinyl)-1,5,6,7-tetrahydro-4H-pyrrolo[3,2-c]pyridin-4-one] the same measures were 1770 nM, 2.33 nM and 2.78 nM.
For `CNc1nc2cccc(-c3cc4c([nH]3)CCNC4=O)c2nc1NC(C)(C)C` [Example 344, 2-(3-(tert-butylamino)-2-(methylamino)-5-quinoxalinyl)-1,5,6,7-tetrahydro-4H-pyrrolo[3,2-c]pyridin-4-one] the same measures were 202 nM, 1.19 nM and 5.61 nM.
As for `CC(C)(C)Nc1nc2c(-c3cc4c([nH]3)CCNC4=O)cccc2nc1Cl` [Example 345, 2-(3-(tert-butylamino)-2-chloro-5-quinoxalinyl)-1,5,6,7-tetrahydro-4H-pyrrolo[3,2-c]pyridin-4-one], the IC50 in the assay with KMS-12-BM cell lines (setting [1]) turned out to be 2730 nM; on Pim-1 (setting [2]), 1 nM; at Pim-2 (setting [3]), 2.25 nM.
In the same order, the values of `CC(C)(C)Nc1nc2c(-c3cc4c([nH]3)CCNC4=O)cccc2nc1N1CC(O)C1` [Example 346, 2-(3-(tert-butylamino)-2-(3-hydroxy-1-azetidinyl)-5-quinoxalinyl)-1,5,6,7-tetrahydro-4H-pyrrolo[3,2-c]pyridin-4-one] are 1120 nM, 4.07 nM and 10.8 nM.
In the case of `CC(C)(C)Nc1nc2c(-c3cc4c([nH]3)CCNC4=O)cccc2nc1N1CCC1` [Example 347, 2-(2-(1-azetidinyl)-3-(tert-butylamino)-5-quinoxalinyl)-1,5,6,7-tetrahydro-4H-pyrrolo[3,2-c]pyridin-4-one], the results for the half-inhibitory concentration (IC50) with KMS-12-BM cell lines (setting [1]), on Pim-1 and on Pim-2 were 3660 nM, 4.55 nM and 10.5 nM, respectively.
For the molecule `Cc1nc2cccc(-c3[nH]c4c(c3Br)C(=O)NCC4)c2nc1NC(C)(C)C` [Example 349, 3-bromo-2-(3-(tert-butylamino)-2-methyl-5-quinoxalinyl)-1,5,6,7-tetrahydro-4H-pyrrolo[3,2-c]pyridin-4-one], the IC50 in the assay on KMS-12-BM cell lines (setting [1]) was found to be 1000 nM; at Pim-1 (setting [2]), 0.625 nM; on Pim-2 (setting [3]) it was 0.874 nM.
In the same order, the values of `Cc1nc2cccc(-c3[nH]c4c(c3C)C(=O)NCC4)c2nc1NC(C)(C)C` [Example 350, 2-(3-(tert-butylamino)-2-methyl-5-quinoxalinyl)-3-methyl-1,5,6,7-tetrahydro-4H-pyrrolo[3,2-c]pyridin-4-one] are 1510 nM, 2.31 nM and 3.38 nM.
In the same order, the values of `COC1=NCCc2[nH]c(-c3cccc4nc(C)c(NC(C)(C)C)nc34)cc21` [Example 351, N-tert-butyl-8-(4-methoxy-6,7-dihydro-1H-pyrrolo[3,2-c]pyridin-2-yl)-3-methyl-2-quinoxalinamine] are 2350 nM, 9.23 nM and 8.9 nM.
In the same order, the values of `Cc1nc2ccc(F)c(-c3cc4c([nH]3)[C@H]([C@@H](C)O)NC4=O)c2nc1NC1CC1` [Example 352, (6R)-2-(3-(cyclopropylamino)-6-fluoro-2-methyl-5-quinoxalinyl)-6-((1R)-1-hydroxyethyl)-5,6-dihydropyrrolo[3,4-b]pyrrol-4(1H)-one] are 188 nM, 1.59 nM and 2.45 nM.
